In patent US6410219B1 (priority 1994, dated 2002):
Where a name gives a salt, the structure may show the parent alone.

What was measured:
R17 [1] = format: cell-based, bacteriophage R17
CA-HIV = format: cell-based
R-17 = format: cell-based, bacteriophage R17
red blood cells [2] = conditions: Swiss Webster, mouse, in vivo
red blood cells [3] = conditions: mouse, in vivo
red blood cells [4] = test system: red blood cells
red blood cells [5] = experiment: IgG binding to red blood cell surfaces (Example 10); format: cell-based; conditions: 10-300 μg/ml
Protocol: Potassium levels on remaining samples were measured and the samples were stored at 4° C. Potassium measurements were repeated daily for one week or until significant differences were observed. Extracellular potassium data appears in Table 15, and FIG. 6. IgG binding in the samples was measured using Baxter Unival Anti-Human Globulin Anti-IgG for Direct Antiglobulin Test and Baxter Coornbs control Cells for Quality Control of Anti-Human Globulin Test (both available from Baxter Healthcare Corporation, Deerfield, Ill.). The results of IgG Binding as measured by FACScan™ (Becton Dickinson, Mountain View, Calif.) appear in Tables 15 and 16: […]

R17 [6] = format: cell-based, bacteriophage R17; remark: listed apart in the source

Molecule: CCN(CC)CCCC(C)Nc1c2ccc(Cl)cc2nc2ccc(OC)cc12 (stereo not shown) [Q, quinicrine]
- light-dependent kill of R17 (R17 [1]): no light-dependent kill

Molecule: 5′-[4-(Bis-2chloroethyl)amino-1-butylaminomethyl]-4,4′, 8-trimethylpsoralen
- Logs Virus Killed at Fixed Drug Dose, CA-HIV (CA-HIV): 0.7
- Dose for 5 log kill R-17 (R-17): ≦2 μM
- Logs Virus Killed at Fixed Drug Dose, R-17 (R-17): >6

Molecule: COc1c2occc2c(CN(C)CO)c2ccc(=O)oc12
- Dose for 5 log kill R-17 (R-17): >75 μM
- Logs Virus Killed at Fixed Drug Dose, R-17 (R-17): <0.5

Molecule: CCN(CCCl)CCCNc1c2ccc(Cl)cc2nc2ccc(OC)cc12 [ICR-170, N-(2-chloroethyl)-N-ethyl-N′-(6-chloro-2-methoxy-9-acridinyl)-1,3-propanediamine dihydrochloride]
- LOSS PER DAY (red blood cells [2]): 2.71%
- RECOVERY (red blood cells [2]): 86.0 ± 6.6
- % RECOVERY, LOW (red blood cells [3]; Balb/c): 93.1%
- % RECOVERY, HIGH (red blood cells [3]): 90.4%

Molecule: 4′-[4-(Bis-2-chloroethyl)amino-1-butylaminomethyl]-4,5′,8-trimethylpsoralen [Compound S-210]
- Logs Virus Killed at Fixed Drug Dose, CA-HIV (CA-HIV): 0.8

Molecule: O=C(O)CCCc1ccc(N(CCCl)CCCl)cc1 [Chlorambucil, chlorambucil]
- potassium leakage of red cells (red blood cells [4]): did not alter
- IgG binding of red cells (red blood cells [5]): did not alter
- R17 inactivation (R17 [6]): ≤ 0.4 logs

Molecule: 4′-[3-(Bis-2-chloroethyl)amino-1-propylaminomethyl]-4,5′,8-trimethylpsoralen
- Logs Virus Killed at Fixed Drug Dose, CA-HIV (CA-HIV): 0.4
- Dose for 5 log kill R-17 (R-17): ≦2 μM
